From ChEMBL document CHEMBL4800726, “Data for DCP probe MSC-4381” (2021) come the findings set out here.

Test [1] has as its target Histamine H1 receptor (Homo sapiens) (UniProt P35367). To be noted: Compound concentration 10.0 uM.
For test [2], the target named is Beta-2 adrenergic receptor (Homo sapiens) (UniProt P07550). The settings on record: Compound concentration 10.0 uM.
Test [3] deals with T1, Muscarinic acetylcholine receptor M5 (Homo sapiens) (UniProt P08912).
T1 sequence (whole entry): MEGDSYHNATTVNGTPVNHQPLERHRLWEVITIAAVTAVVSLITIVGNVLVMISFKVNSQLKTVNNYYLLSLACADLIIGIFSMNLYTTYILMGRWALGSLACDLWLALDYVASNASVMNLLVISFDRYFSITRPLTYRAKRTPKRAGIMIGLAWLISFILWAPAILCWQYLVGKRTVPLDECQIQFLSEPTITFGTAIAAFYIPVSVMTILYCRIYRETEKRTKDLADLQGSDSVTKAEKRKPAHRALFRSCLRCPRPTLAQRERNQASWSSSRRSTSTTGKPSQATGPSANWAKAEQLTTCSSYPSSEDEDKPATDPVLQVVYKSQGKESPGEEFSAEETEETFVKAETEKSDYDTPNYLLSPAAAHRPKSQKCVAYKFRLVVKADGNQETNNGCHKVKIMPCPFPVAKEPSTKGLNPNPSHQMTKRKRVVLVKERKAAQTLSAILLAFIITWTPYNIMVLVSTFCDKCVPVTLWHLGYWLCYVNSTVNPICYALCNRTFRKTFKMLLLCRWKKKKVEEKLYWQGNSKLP
To be noted: Compound concentration 10.0 uM.

In test [4] the target is Muscarinic acetylcholine receptor M4 (Homo sapiens) (UniProt P08173). The settings on record: Compound concentration 10.0 uM.
Chain of Muscarinic acetylcholine receptor M4 (Homo sapiens) (P08173 whole entry): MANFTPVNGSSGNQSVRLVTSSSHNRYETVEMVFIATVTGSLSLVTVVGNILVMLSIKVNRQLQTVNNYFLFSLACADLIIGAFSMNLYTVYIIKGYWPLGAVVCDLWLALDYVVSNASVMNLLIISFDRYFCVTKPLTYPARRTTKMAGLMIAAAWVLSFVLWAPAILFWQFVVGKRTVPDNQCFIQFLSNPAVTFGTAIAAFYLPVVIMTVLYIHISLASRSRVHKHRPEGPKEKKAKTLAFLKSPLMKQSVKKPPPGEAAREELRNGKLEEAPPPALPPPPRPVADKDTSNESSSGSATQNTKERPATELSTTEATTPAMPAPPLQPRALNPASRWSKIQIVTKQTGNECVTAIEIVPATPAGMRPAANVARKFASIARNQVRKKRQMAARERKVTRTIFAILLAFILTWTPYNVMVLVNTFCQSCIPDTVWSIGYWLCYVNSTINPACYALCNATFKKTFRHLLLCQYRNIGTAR
Test [5] deals with Monocarboxylate transporter 2/3 (Homo sapiens, UniProt O60669+O95907). As to the kind of experiment: Lactate efflux inhibition assay (RT4). The format is protein assay.
For test [6], the target named is T2, 5-hydroxytryptamine receptor 3A (Homo sapiens) (UniProt P46098).
T2 sequence (whole entry): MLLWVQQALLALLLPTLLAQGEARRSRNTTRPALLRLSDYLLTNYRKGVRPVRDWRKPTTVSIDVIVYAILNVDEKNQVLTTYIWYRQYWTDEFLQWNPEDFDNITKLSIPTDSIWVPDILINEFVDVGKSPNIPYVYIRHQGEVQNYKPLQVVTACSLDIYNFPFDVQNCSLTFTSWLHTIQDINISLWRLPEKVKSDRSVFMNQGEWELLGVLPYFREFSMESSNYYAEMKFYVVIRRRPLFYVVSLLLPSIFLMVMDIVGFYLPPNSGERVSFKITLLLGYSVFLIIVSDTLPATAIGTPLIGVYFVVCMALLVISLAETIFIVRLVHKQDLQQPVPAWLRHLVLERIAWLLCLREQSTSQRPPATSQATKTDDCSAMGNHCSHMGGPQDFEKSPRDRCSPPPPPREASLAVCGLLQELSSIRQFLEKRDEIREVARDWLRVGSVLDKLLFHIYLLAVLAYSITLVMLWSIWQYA
To be noted: Compound concentration 10.0 uM.

For test [7], the target named is T3, Muscarinic acetylcholine receptor M2 (Homo sapiens) (UniProt P08172).
T3 sequence (whole entry): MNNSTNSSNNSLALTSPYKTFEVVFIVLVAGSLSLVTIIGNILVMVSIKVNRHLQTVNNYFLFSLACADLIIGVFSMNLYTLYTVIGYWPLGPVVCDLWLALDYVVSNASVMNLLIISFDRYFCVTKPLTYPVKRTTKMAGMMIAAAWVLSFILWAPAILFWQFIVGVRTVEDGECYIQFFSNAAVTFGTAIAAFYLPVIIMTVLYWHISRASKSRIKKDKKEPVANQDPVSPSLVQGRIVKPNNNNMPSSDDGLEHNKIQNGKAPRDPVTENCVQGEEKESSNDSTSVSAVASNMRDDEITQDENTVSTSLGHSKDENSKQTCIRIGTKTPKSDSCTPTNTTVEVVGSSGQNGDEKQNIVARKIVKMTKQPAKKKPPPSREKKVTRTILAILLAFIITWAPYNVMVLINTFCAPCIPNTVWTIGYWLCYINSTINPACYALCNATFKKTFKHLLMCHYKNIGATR
The settings on record: Compound concentration 10.0 uM.

In test [8] the target is 5-hydroxytryptamine receptor 7 (Homo sapiens) (UniProt P34969). The settings on record: Compound concentration 10.0 uM.
Chain of 5-hydroxytryptamine receptor 7 (Homo sapiens) (P34969 whole entry): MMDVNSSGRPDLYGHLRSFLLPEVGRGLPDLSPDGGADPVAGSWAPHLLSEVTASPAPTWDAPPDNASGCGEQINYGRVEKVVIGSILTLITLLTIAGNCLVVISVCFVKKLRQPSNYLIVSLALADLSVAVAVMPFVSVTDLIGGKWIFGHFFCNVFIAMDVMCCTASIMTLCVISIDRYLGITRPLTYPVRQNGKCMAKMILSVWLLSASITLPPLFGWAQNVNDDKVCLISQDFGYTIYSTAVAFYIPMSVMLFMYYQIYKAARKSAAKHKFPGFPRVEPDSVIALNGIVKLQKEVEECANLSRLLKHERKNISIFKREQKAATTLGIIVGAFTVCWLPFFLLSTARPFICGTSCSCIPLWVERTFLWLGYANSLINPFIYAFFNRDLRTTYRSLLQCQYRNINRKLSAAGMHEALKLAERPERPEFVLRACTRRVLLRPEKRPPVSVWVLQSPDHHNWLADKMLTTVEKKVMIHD
The target of test [9] is Sigma non-opioid intracellular receptor 1 (Homo sapiens) (UniProt Q99720). To be noted: Compound concentration 10.0 uM.
Chain of Sigma non-opioid intracellular receptor 1 (Homo sapiens) (Q99720 whole entry): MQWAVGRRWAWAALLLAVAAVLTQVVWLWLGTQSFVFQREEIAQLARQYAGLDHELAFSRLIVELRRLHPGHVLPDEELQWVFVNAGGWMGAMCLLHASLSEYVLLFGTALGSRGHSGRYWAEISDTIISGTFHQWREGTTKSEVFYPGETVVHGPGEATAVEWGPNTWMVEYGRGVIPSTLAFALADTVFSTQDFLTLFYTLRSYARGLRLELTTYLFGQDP
Test [10] concerns the target Alpha-2A adrenergic receptor (Homo sapiens) (UniProt P08913). The settings on record: Compound concentration 10.0 uM.
For test [11], the target named is Sodium-dependent serotonin transporter (Homo sapiens) (UniProt P31645). The settings on record: Compound concentration 10.0 uM.
Chain of Sodium-dependent serotonin transporter (Homo sapiens) (P31645 whole entry, looked up): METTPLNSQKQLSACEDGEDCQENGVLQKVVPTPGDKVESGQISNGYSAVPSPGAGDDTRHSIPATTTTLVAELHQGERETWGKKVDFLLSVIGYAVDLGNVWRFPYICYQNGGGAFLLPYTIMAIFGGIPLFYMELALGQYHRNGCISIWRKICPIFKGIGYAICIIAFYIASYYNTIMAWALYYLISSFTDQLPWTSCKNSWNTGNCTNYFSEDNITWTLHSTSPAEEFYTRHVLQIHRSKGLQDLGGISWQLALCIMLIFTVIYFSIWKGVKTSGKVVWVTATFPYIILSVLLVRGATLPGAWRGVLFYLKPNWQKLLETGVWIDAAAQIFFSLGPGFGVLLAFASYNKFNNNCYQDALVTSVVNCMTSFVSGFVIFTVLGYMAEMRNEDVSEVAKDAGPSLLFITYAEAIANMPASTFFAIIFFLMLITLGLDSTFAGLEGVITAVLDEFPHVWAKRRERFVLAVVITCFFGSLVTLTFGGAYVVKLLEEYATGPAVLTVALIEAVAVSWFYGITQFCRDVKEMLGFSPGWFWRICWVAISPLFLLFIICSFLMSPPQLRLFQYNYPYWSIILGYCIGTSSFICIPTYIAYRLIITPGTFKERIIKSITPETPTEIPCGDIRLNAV
Test [12] addresses 5-hydroxytryptamine receptor 2B (Homo sapiens) (UniProt P41595). To be noted: Compound concentration 10.0 uM.
In test [13] the target is Sodium-dependent noradrenaline transporter (Homo sapiens) (UniProt P23975). To be noted: Compound concentration 10.0 uM.
The target of test [14] is Beta-1 adrenergic receptor (Homo sapiens) (UniProt P08588). To be noted: Compound concentration 10.0 uM.
Chain of Beta-1 adrenergic receptor (Homo sapiens) (P08588 whole entry, looked up): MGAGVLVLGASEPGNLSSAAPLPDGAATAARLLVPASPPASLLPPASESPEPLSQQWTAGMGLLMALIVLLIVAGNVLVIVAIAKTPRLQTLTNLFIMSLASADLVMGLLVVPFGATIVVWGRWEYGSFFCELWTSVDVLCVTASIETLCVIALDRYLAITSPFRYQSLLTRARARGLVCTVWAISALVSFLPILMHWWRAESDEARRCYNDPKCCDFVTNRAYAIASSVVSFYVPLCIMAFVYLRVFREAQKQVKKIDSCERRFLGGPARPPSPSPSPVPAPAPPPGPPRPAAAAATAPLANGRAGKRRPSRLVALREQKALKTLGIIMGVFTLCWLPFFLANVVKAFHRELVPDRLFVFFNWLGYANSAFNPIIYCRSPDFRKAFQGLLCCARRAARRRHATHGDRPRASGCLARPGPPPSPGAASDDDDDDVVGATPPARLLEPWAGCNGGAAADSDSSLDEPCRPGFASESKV
In test [15] the target is GABA-A receptor; anion channel (Rattus norvegicus) (UniProt O09028+P15431+P18506+P18508+P19969+P20236+P23574+P23576+P28471+P28473+P30191+P62813+P63079+P63138+Q91ZM7+Q9ES14). To be noted: Compound concentration 10.0 uM.
Test [16] concerns the target 5-hydroxytryptamine receptor 2C (Homo sapiens) (UniProt P28335). To be noted: Compound concentration 10.0 uM.
The target of test [17] is Alpha-2C adrenergic receptor (Homo sapiens) (UniProt P18825). To be noted: Compound concentration 10.0 uM.
Chain of Alpha-2C adrenergic receptor (Homo sapiens) (P18825 whole entry): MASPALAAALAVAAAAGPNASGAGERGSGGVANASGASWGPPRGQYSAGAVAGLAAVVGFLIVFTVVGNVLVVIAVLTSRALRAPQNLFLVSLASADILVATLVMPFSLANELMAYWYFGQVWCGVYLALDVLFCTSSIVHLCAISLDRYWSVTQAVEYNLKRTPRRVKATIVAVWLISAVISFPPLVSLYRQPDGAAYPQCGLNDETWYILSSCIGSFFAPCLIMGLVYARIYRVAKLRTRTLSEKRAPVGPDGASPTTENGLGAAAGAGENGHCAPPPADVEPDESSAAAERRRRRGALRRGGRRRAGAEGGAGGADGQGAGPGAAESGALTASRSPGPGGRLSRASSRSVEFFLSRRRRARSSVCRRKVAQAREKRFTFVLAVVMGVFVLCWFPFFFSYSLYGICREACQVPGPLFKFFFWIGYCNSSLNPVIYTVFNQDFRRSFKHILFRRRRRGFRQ
The target in test [18] is D(4) dopamine receptor (Homo sapiens) (UniProt P21917). The settings on record: Compound concentration 10.0 uM.
Chain of D(4) dopamine receptor (Homo sapiens) (P21917 whole entry): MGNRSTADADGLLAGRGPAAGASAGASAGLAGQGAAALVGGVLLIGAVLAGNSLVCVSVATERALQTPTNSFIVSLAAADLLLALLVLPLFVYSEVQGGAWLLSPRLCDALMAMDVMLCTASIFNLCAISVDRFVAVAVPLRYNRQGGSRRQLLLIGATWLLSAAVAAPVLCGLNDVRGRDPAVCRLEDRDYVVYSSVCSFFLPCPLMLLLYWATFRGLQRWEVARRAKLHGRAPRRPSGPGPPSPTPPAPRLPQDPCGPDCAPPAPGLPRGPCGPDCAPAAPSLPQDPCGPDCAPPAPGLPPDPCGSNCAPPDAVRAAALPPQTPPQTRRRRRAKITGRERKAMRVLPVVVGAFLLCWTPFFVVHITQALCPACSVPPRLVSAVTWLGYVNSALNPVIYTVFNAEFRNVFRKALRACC
The target of test [19] is D(2) dopamine receptor (Homo sapiens) (UniProt P14416). To be noted: Compound concentration 10.0 uM.
Chain of D(2) dopamine receptor (Homo sapiens) (P14416 whole entry): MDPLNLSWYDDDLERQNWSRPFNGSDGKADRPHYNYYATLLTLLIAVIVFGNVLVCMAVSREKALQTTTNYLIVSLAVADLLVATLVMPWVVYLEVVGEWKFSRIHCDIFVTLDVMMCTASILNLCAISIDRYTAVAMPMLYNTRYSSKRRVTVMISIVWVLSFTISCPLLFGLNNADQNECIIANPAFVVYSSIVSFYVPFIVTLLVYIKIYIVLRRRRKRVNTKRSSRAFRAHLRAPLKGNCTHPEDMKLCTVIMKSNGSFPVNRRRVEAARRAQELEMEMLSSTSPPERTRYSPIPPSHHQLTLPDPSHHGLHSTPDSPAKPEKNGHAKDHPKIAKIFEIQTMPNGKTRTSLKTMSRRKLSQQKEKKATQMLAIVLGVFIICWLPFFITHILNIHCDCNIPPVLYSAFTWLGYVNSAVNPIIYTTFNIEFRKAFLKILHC
Test [20] has as its target 5-hydroxytryptamine receptor 6 (Homo sapiens, UniProt P50406). The settings on record: Compound concentration 10.0 uM.
Test [21] has as its target Delta-type opioid receptor (Homo sapiens, UniProt P41143). To be noted: Compound concentration 10.0 uM.
For the next test, the species on record is Rattus norvegicus. To be noted: Compound concentration 10.0 uM.

Chain of Delta-type opioid receptor (P41143 whole entry): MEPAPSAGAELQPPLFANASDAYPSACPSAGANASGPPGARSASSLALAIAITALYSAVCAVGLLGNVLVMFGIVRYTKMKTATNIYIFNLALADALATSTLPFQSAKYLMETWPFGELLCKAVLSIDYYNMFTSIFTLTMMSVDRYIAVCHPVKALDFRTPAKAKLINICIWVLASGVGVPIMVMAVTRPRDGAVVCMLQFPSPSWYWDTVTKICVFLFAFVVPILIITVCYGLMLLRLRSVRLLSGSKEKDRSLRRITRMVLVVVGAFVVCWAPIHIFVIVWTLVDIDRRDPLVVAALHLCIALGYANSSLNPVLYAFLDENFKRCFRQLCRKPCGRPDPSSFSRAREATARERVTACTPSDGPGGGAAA
Chain of Histamine H1 receptor (Homo sapiens) (P35367 whole entry): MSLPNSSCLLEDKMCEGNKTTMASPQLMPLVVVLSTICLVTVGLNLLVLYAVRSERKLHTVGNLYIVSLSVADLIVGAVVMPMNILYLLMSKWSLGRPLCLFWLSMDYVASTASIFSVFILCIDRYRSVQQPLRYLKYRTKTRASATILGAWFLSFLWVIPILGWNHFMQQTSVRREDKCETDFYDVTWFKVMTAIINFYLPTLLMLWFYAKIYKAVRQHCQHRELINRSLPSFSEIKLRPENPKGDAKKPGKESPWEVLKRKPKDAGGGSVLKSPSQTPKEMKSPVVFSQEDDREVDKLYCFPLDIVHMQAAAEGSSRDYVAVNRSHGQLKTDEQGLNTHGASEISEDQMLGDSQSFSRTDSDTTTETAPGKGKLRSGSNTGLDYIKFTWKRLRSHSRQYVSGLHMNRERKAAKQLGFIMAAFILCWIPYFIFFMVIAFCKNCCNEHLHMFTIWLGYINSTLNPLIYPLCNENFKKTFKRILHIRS
Chain of Alpha-2A adrenergic receptor (Homo sapiens) (P08913 whole entry): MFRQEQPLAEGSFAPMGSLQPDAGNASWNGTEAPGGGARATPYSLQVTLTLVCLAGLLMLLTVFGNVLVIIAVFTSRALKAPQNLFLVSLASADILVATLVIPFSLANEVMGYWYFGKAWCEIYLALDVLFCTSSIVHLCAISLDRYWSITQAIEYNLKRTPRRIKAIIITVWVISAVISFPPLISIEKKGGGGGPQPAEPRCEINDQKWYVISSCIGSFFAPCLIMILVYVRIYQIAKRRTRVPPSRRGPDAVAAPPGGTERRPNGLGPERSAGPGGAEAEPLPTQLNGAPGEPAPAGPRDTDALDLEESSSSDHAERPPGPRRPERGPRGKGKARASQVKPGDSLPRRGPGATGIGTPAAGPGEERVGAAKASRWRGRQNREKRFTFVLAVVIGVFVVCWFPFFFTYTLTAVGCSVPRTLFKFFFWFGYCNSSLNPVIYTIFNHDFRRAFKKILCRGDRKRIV

Regarding `COc1cc(C(=O)O)ncc1C#Cc1ccccc1NS(=O)(=O)c1cccc2c(N(C)C)ccnc12` [MSC-0516], the inhibition in test [1] was -1.47%; in test [2], -2.19%; in test [3] it was -3.36%; in [4] it was -5.83%; in [6], 1.13%; in test [7], 2.62%. Also, the inhibition in test [8] is -2.53%; in [9], 18.7%; in test [10], 44.4%; in test [11], 3.99%; in test [12] it was 34.9%; in test [13] it was -7.14%. Besides, the inhibition in test [14] is 16.7%; in test [15], 25.6%; in test [16] it was 7.95%; in [17], 13%; in test [18] it was 4.65%; in [19], -0.32%. In addition, the figures for the inhibition (in [20]; in [21]; in the test filed under Rattus norvegicus) were 65.5%, 84.3% and 60.4%, respectively. Further, the half-inhibitory concentration (IC50) in test [5] was > 4000 nM (not active).
For the molecule `CCOc1ccc(S(=O)(=O)Nc2ccc(Cl)cc2C#Cc2cnc(C(=O)O)cc2OC)c2ncccc12` [MSC-4381], the inhibition in test [1] was 21.7%; in test [2], 14.8%; in test [3], -6.26%; in test [4], 4.24%; in test [6] it was 9.43%; in [7] it was -0.58%. Besides, the inhibition in [8] is 2.02%; in test [9], -6.66%; in test [10], 26%; in test [11] it was 6.49%; in [12], 8.83%; in test [13], 34.4%. The inhibition in test [14] is 18.8%; in test [15], 0.15%; in test [16], 24.4%; in test [17], 27.7%; in test [18] it was 4.2%; in test [19] it was 9.9%. For the same molecule, the inhibition in test [20] is 25.9%; in test [21], -8.88%; in the test filed under Rattus norvegicus it was 45%. For the same molecule, in test [5], the half-maximal inhibitory concentration (IC50) amounted to 638 nM.
